Our source for the IC50 values is ChEMBL document CHEMBL3886157, “Heterocyclic carboxamides as modulators of kinase activity” (2015).

Bounds are passed on as bounds.

Experiment [1] addresses Ribosomal protein S6 kinase beta-1 (Homo sapiens, UniProt P23443, T412E). The experiment can be described thus: P70S6K Enzyme Assay: P70S6K inhibitor compounds are diluted and plated in 96 well plates. A reaction mixture including the following components is then added to the compound plate to initiate the enzyme reaction; P70S6K (3 nM, T412E mutant, Millipore) is mixed with 24 uM ATP in an assay buffer containing 100 mM Hepes (pH 7.5), 5 mM MgCl2, 1 mM DTT, 0.015% Brij and 1 uM of the substrate peptide FITC-AHA-[…]-OH (derived from the S6 ribosomal protein sequence, FITC=fluorescein isothiocyanate, AHA=6-aminohexanoic acid). The reaction is incubated for 90 min at 25° C., before the addition of 10 mM EDTA to stop the reaction. The proportion of substrate and product (phosphorylated) peptide is analysed on a Caliper Life Sciences Lab Chip 3000, using a pressure of -1.4 psi, and upstream and downstream voltages of -3000 and -700 respectively. Product peaks are resolved before substrate peaks on the resulting chromatograms.

For experiment [2], the target named is RAC-alpha serine/threonine-protein kinase (Homo sapiens, UniProt P31749). Description: AKT Enzyme Assay: A TTP Mosquito liquid handling instrument is used to place […] of the appropriate concentration of inhibitor in 100% DMSO (for a dose response curve calculation) into each well of a 384-well plate. To this reaction components are added to a final volume of 12.50 0.1 ng/uL His-AKT (Full Length), (Invitrogen, Part # P2999, Lot #641228C). 160 uM ATP (Fluka, 02055) 1 mM DTT (Sigma, D0632) 1 mM MgCl2 (Sigma, M1028) 1 uM substrate peptide (sequence FITC-AHA-[…]-NH2), synthesized by Tufts Peptide Synthesis service. 100 mM HEPES pH 7.5 (Calbiochem, 391338) 0.015% Brij-35 (Sigma, B4184)The reaction is incubated for 90 min at 25° C, and then stopped by the addition of 70 ul of Stop buffer (100 mM HEPES pH 7.5, 0.015% Brij-35, 10 mM EDTA (Sigma, E7889)).The plate is read on a Caliper LC 3000 in an Off-Chip mobility shift assay format, using the following parameters for a 12-sipper chip: screening pressure -2.3 psi, upstream voltage -500, and downstream voltage -3000.
RAC-alpha serine/threonine-protein kinase, sequence (P31749 whole entry): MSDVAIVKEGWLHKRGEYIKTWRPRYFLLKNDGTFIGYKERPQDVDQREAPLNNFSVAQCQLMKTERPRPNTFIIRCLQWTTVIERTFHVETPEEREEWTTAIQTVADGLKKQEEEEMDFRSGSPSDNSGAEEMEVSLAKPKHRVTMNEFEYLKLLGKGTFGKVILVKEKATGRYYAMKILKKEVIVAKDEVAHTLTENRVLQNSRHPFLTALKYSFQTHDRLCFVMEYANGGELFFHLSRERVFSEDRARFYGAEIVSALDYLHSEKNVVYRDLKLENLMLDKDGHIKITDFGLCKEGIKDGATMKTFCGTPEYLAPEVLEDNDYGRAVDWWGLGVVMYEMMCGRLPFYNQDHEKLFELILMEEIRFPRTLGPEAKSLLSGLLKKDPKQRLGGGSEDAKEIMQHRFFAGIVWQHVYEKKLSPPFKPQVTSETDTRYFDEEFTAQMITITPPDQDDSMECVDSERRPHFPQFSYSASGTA

Ribosomal protein S6 kinase beta-1, sequence (P23443 whole entry T412E): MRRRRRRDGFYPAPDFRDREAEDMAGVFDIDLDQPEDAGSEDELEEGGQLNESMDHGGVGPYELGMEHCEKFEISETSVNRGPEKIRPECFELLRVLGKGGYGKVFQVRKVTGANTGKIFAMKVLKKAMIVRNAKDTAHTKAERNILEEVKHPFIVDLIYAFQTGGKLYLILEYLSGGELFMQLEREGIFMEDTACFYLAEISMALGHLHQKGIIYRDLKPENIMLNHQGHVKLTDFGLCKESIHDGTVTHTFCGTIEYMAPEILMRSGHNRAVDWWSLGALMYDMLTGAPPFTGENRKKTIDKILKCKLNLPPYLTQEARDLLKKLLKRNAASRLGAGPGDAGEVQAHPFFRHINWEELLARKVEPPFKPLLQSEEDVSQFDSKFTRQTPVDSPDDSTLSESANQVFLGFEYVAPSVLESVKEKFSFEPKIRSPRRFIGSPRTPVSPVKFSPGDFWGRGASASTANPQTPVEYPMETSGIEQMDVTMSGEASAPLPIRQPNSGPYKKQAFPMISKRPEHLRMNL

Turning to `NC(=O)c1ccc(NCCc2ccc(Cl)c(Cl)c2)c2cncnc12`, the figures for the IC50 in experiment [1] and in experiment [2] were 98 nM and more than 100000 nM, respectively. On to `NC(=O)c1ccc(N2CCN(c3ccc(Cl)c(Cl)c3)CC2)c2cncnc12`, for which the IC50 in experiment [1] and in experiment [2] was more than 100000 nM in each case. On to `NC(=O)c1ccc(NCc2ccccc2)c2cncnc12`, for which the IC50 in experiment [1] was 690 nM; in experiment [2], 57000 nM.

Take `CNC[C@@H](Nc1ccc(C(N)=O)c2ncncc12)c1cccc(F)c1`: the IC50 in experiment [1] is more than 1000 nM. The same measure, in the same setting: the figure for `NC(=O)c1ccc(NC(=O)C2CNC[C@@H]2c2cccc(F)c2)c2cccnc12` (some centres not stated) is more than 1000 nM; for `CN(Cc1ccc(Cl)c(Cl)c1)C1CCN(c2ccc(C(N)=O)c3ncncc23)C1` (racemic) it is 570 nM.

Consider `NC(=O)c1ccc(NCC(c2ccccc2)N2CCNCC2)c2cncnc12` (racemic), for which the IC50 in experiment [1] stood at 170 nM. Still for that read-out and setting: in the case of `NC(=O)c1ccc(N2CCC(N)(C(=O)Nc3ccc(F)c(C(F)(F)F)c3)C2)c2cncnc12` (racemic) it was 270 nM. Same read-out and setting: the figure for `NC(=O)c1ccc(N2CCC(NCc3ccc(Cl)c(Cl)c3)C2)c2cncnc12` (racemic) is 490 nM.
